Measurements taken from patent EP2118065B1, “Substituted 1H-benz[de]isoquinoline-1,3-diones” (priority 2007, dated 2008).

Tests used:
[1] = tested on: HL-60 cells; test: Annexin V-FITC/PI flow cytometric analysis of apoptosis; format: cell-based, human; details: 24 h
Experimental: Induction of apoptosis in vitro by Compound 3b and 3f was further determined in HL-60 cells by flow cytometric assay using an Annexin V-FITC Apoptosis Detection Kit (BD Biosciences Pharmingen, San Diego, USA). Camptothecin was included in the study for comparison. Exponentially growing HL-60 cells in complete RPMI-1640 media (100 µl of 5×10^6) were plated in six well plates. 10 µl of each Compound in DMSO (5 and 10 µM concentrations) was added to the wells followed by the addition of required media (total volume 1ml). Plates were incubated at 37°C for 24 h. The cells were centrifuged at room temperature at 1500 rpm for 5 min. The pellet was washed twice with cold PBS and was re-suspended in the binding buffer (1X, 100µl) provided in the Kit. The cells were stained with Annexin V-FITC (5 µl) and Propidium Iodide [PI] (5µl) and incubated for 15 min in the dark at 25°C. Next 400µl of binding buffer was added to each tube and analyzed on a FACScan flow cytometer (Becton Dickinson, Mountainview, CA) using Cell Quest software. Cells stained with both Annexin-V-FITC and PI, containing DMSO as vehicle was used as stained control. Cells that were annexin^+ /Pr [Lower right quadrant (LR)] and annexin^+/PI^+ [Upper right quadrant (UR)] were considered as early apoptotic and late apoptotic respectively.

[2] = tested on: MOLT-4 cells; test: as above; format: cell-based, Human; details: 6 hrs
Experimental: Events of apoptosis were analyzed using Annexin V-FITC Apoptosis Detection Kit (A 2214 Sigma Aldrich, USA). Human leukemia Cells (MOLT-4, 1x10^6 cells/ml) in 6-well plate were treated with Compound 3f (3 and 5µg/ml), camptothecin (5µM) and incubated for 6 hrs. After incubation, the cells were centrifuged, rinsed with PBS twice and re-suspended in binding buffer (10 mM HEPES/NaOH, pH 7.5 containing 0.14M NaCl and 25 mM CaCl2). An aliquot (500 µl) of suspension was stained with of Annexin V-FITC (5 µl) and Propidium Iodide (10 µl). The cells were stored for 10 minutes at room temperature in the dark and then analyzed by BD-LSR flow cytometer (Becton Dickinson, USA) at two wavelengths to measure fluorescence for of Annexin V & PI binding at 515 and 639 nm.

[3] = tested on: caspase-6; test: Caspase-6 colorimetric assay in MOLT-4 cells; format: cell-based, Human; details: 5 µg/ml, 24 hrs
Experimental: (§1) Caspase 3 activity was measured by using caspase-3 colorimetric Assay kit (R&D Systems USA). Briefly, MOLT-4 (∼2x10^6cells) were treated with Compound 3f, camptothecin (5µM) and staurosporine (1µM) for 24h, and then cell centrifuged and pellet was lysed using 50µL cell lysis buffer. Cell lysates were mixed with 10µL of dithiothreitol (DTT) and 50µL reaction buffer (2X) containing 5 µL DEVD-pNA, a caspase-3 substrate, and incubated upto 24 hr at 37°C. Additional controls were included in this assay containing no cell lysate without substrate Enzyme-catalyzed release of pNA was monitored using a microplate reader at 405 nm (Fig. 2). Likewise, Caspase 6 activity was also measured using caspase-6 colorimetric Assay kit (R&D Systems USA). However, the enzyme and enzyme substrate (VEID-pNA) were different (Fig. 3). Treatment of the cells with Compound 3f induced caspase-3/6 activities. […] (Fig 2).

[4] = tested on: S-180; test: In vivo tumor growth inhibition study; parameters: species or system mice
Source text: Compound 3f was selected for tumor growth inhibition study. 18 mice each were taken for treated and control groups and inoculated with 1 x 10^6 S-180 cells. After sacrificing mice from the respective groups sequentially on days 9, 14 and 19 following drug treatment on day 1-7 at doses indicated, the ascites fluid from peritoneal cavities of animals were quantitatively transferred and the peritoneal cavities were washed with measured volume of physiological saline. The total number of tumor cells were counted and ascites fluid volume were measured. Averages ( x ± S.E.M.) were made of these two parameters and the percentage inhibitions [(1 - T/C) ×100] were calculated for each dose.

[5] = tested on: caspase-3; test: Caspase-3 colorimetric assay in MOLT-4 cells; format: cell-based, Human; details: 5 µg/ml, 12 hrs
Experimental: as §1, with “Briefly, MOLT-4 (∼2x10^6cells) were treated with Compound 3f, camptothecin (5µM) and staurosporine (1µM) for 24h, and then cell centrifuged and pellet was lysed using 50µL cell lysis buffer.” left out

[6] = tested on: U-937 lymphoma; test: MTT in vitro cytotoxicity; details: Homo sapiens, U-937, 96 h, read-out: IC50 value Lymphoma U-937
[7] = tested on: HL-60 human leukemia; test: MTT in vitro cytotoxicity; details: Homo sapiens, HL-60, 96 h, read-out: IC50 value Leukemia HL-60
[8] = tested on: Ehrlich ascites carcinoma (EAC); test: In vivo anticancer activity: increase in median survival time; parameters: species or system Swiss albino male mice; details: 60 mg/kg i.p., 7 injns., days 1-7

Structure (SMILES): O=C1c2cccc3c([N+](=O)[O-])ccc(c23)C(=O)N1CCCCl [Compound 3f, 6-Nitro-2-[3-(Chloropropyl)]-1H-benz[de]isoquinoline-1,3-dione]
- early apoptotic cells (Annexin V^+/PI^-), LR ([1]; 5 µM): 16.4%
- late apoptotic cells (Annexin V^+/PI^+), UR ([1]; 5 µM): 31.5%
- total apoptotic cells (apoptotic cell population) ([1]; 5 µM): 47.9%
- early apoptotic cells (Annexin V^+/PI^-), LR ([1]; 10 µM): 11.5%
- late apoptotic cells (Annexin V^+/PI^+), UR ([1]; 10 µM): 81.0%
- total apoptotic cells (apoptotic cell population) ([1]; 10 µM): 92.5%
- late apoptotic cells (Annexin V^+/PI^+) ([2]; 3 µg/ml): 1.05%
- total apoptotic cells ([2]; 3 µg/ml): 7.43%
- late apoptotic cells (Annexin V^+/PI^+) ([2]; 5 µg/ml): 4.82%
- total apoptotic cells ([2]; 5 µg/ml): 18.44%
- Caspase-6 activity [3]: maximum at 5 µg/ml for 24 hrs
- inhibition in S-180 tumor growth ([4]; 19th day, after drug treatment on day 1-7): about 20%
- inhibition in S-180 tumor growth ([4]; day 9, after drug treatment on day 1-7): 84%
- Caspase-3 activity [5]: maximum at 5 µg/ml at 12 hrs
- IC50 [6]: 1950 nM
- IC50 [7]: 300 nM
- MST [8]: 34.0 days
